# Experimental data taken from ChEMBL document CHEMBL1129712, “Synthesis and biological activities of camphor-based non-peptide growth hormone secretagogues” (Bioorg Med Chem Lett, 1996).
# Species: Rattus norvegicus
# Experiment: Evaluated for intrinsic GH secretory potency as half maximal release of GH in the rat pituitary cell assay.
# Assay type: functional
# Conditions: Pituitary gland cell
row,SMILES,EC50
1,CC(C)(N)C(=O)NC1CC2CCC1(CS(=O)(=O)N1CCC3(CCc4ccccc43)CC1)C2(C)C (stereo not given),> 10000 nM
2,Cc1ccccc1N1CCN(S(=O)(=O)CC23CCC(CC2NC(=O)CC(C)(C)N)C3(C)C)CC1 (stereo not given),> 10000 nM
3,CC1(C)C2CCC1(CS(=O)(=O)N1CCC3(CCc4ccccc43)CC1)C(NC(=O)C1CCCCN1)C2 (stereo not given),> 10000 nM
4,CC1(C)C2CCC1(CS(=O)(=O)N1CCC3(CCc4ccccc43)CC1)C(NC(=O)C1CN3CCC1CC3)C2 (stereo not given),> 10000 nM
5,CC(C)(N)CC(=O)NC1CC2CCC1(CS(=O)(=O)N1CCC3(CCc4ccccc43)CC1)C2(C)C (stereo not given),> 10000 nM
6,CC(C)(C)OC(=O)N1CCCC(C(=O)NC2CC3CCC2(CS(=O)(=O)N2CCC4(CCc5ccccc54)CC2)C3(C)C)C1 (stereo not given),> 25000 nM

# The next lines start with the values.
row,EC50,SMILES
1,9500 nM,CC1(C)C2CCC1(CS(=O)(=O)N1CCC3(CCc4ccccc43)CC1)C(NC(=O)C1CCNCC1)C2 (stereo not given)
2,> 5000 nM,Cc1ccccc1N1CCN(S(=O)(=O)CC23CCC(CC2NC(=O)[C@H]2CCCNC2)C3(C)C)CC1 (stereo not given in full)
3,300 nM,CC1(C)C2CCC1(CS(=O)(=O)N1CCC3(CCc4ccccc43)CC1)C(NC(=O)C1CCCN(CCO)C1)C2 (stereo not given)
4,135 nM,Cc1ccccc1N1CCN(S(=O)(=O)CC23CCC(CC2NC(=O)[C@@H]2CCCNC2)C3(C)C)CC1 (stereo not given in full)
5,90 nM,C[C@@H](O)CN1CCC[C@@H](C(=O)NC2CC3CCC2(CS(=O)(=O)N2CCC4(CCc5ccccc54)CC2)C3(C)C)C1 (stereo not given in full)
6,> 1000 nM,CC1(C)C2CCC1(CS(=O)(=O)N1CCC3(CCc4ccccc43)CC1)C(NC(=O)[C@H]1CCCNC1)C2 (stereo not given in full)
7,800 nM,CC1(C)C2CCC1(CS(=O)(=O)N1CCC3(CCc4ccccc43)CC1)C(NC(=O)[C@@H]1CCCN(C[C@H](O)CO)C1)C2 (stereo not given in full)
8,140 nM,CC1(C)C2CCC1(CS(=O)(=O)N1CCC3(CCc4ccccc43)CC1)C(NC(=O)[C@@H]1CCCNC1)C2 (stereo partly drawn) [L-162425]
9,300 nM,CC1(C)C2CCC1(CS(=O)(=O)N1CCC3(CCc4ccccc43)CC1)C(NC(=O)C1CCCNC1)C2 [L-368112]
